One test addresses T1, imipramin-fixation sites (Rattus norvegicus, UniProt P31652).
T1 construct: from tissue
The test is described as follows: Inhibition of 3H-Imipramin binding (imipramin-fixation sites). The conditions noted are these: for IC50: log-probit-analysis. The source says:
(§1) III. Determination of activity to central nervous system.
(§2) The following compounds have been tested for their activity to benzodiazepin-receptors and imipramin-fixation sites in comparison to the known compounds Amitriptylinoxid and Medazepam:
(§3) The determination of their inhibitory activity has been effected corresponding to H. W. Damm et al., Res. Comm. chem. path. Pharmacol. 22, 597-600 (1978) or, respectively, M. Briley et al., Eur. J. Pharmacol. 72, 377-380 (1981). The separation of the bound from the free ligand concentration is effected by filtration. The used ligands Flunitrazepam and Imipramin has been marked by tritium.
(§4) Half maximum inhibitory values have been determined by means of a […]

In another test the test system is narcotized cat. The test is described as follows: Determination of the myocardial effect in the narcotized cat. The format is in vivo. An excerpt:
II. Determination of the myocardial effect in the narcotized cat.
10 cats of both sexes are narcotized with chloralose-urethane (0.25% urethane, 0.05% chloralose per kilogram). To ease the spontaneous respiration there was effected a tracheotomy. The following hemodynamic parameters were noted down:
The arteriel systolic and diastolic blood pressure by means of a polyethylene cathether in the right-hand Arteria femoralis registered by means of a Statham element type P23 DB. The pulse frequency was obtained from the blood pressure amplitude and registered by means of a cardiotachometer (type EKA-pulse).
The increase of isovolumetric blood pressure was determined by means of a catheter tip manometer of the type PC 350 A of the Millar Company, USA, introduced to the Arteria carotis communis left-ventricullary and was determined by subsequent differentiation (amplifier of Messrs. Sachs).
The known values have been registered continuously by a Beckmann-Dynograph of the type R. There are given the values in an interval of 2 minutes.
The test animals have been heparinized with 500 I.E. of Liquemin®.
The test compounds are dissolved as follows:
Compound A in 50% glycofurol with heating,
Compound B in 10% glycofurol and 5% HCl with heating.
The test compounds have been administered at consecutively increasing dosages at a volume of 0.1 cc./kg. (Arteria femoralis). The total time of injection was […]. The next dose has been administered only after the complete dying-out of the effect of the previous administration.

Test [1] relates to isolated right-hand atrium. The test is described as follows: Chronotropic effect in spontaneously pulsing right-hand atrium of guinea pigs. Further details: species or system guinea pig. The conditions noted are these: Cavia porcellus, mean percentage change to starting value, six determinations; for activation at 100 µM: 1 × 10^-4 mol/l, A in 1 × 10^-4 molar citric acid, B in tetraglycol and dilute hydrochloric acid. Here is the method: (§5) I. Test to show inotropic effectiveness in the isolated atrium of guinea pigs.
(§6) The measurements have been effected on isolated atria of guinea pigs. The effect to pulse frequency (chronotropy) is determined at the spontaneously pulsing right-hand atrium. The effect to the contractility (inotropy) is determined at the electrically stimulated left-hand atrium. The mean values of the percentage change to the starting value from six different determinations in each test is given hereinafter.

The test system of test [2] is isolated left-hand atrium. In words: Inotropic effectiveness in electrically stimulated left-hand atrium of guinea pigs. Details: species or system guinea pig. The settings on record: Cavia porcellus, mean percentage change to starting value, six determinations, read-out: Inotropic Effect; for activation at 100 µM: 1 × 10^-4 mol/l, A in 1 × 10^-4 molar citric acid, B in tetraglycol and dilute hydrochloric acid. Here is the method:
as §5, §6

Another test relates to benzodiazepin-receptors. In words: Inhibition of 3H-Flunitrazepam binding (benzodiazepin-receptors). The conditions noted are these: for IC50: log-probit-analysis.
Text: as §1, §2, §3, §4

The mark [3] stands for this setting: 1 × 10^-3 mol/l, in tetraglycol and dilute hydrochloric acid.

As usually defined, the IC50 is the midpoint of a concentration-inhibition curve. The low end stands for greater potency, the high end for weaker potency.

T1 sequence (P31652 whole entry): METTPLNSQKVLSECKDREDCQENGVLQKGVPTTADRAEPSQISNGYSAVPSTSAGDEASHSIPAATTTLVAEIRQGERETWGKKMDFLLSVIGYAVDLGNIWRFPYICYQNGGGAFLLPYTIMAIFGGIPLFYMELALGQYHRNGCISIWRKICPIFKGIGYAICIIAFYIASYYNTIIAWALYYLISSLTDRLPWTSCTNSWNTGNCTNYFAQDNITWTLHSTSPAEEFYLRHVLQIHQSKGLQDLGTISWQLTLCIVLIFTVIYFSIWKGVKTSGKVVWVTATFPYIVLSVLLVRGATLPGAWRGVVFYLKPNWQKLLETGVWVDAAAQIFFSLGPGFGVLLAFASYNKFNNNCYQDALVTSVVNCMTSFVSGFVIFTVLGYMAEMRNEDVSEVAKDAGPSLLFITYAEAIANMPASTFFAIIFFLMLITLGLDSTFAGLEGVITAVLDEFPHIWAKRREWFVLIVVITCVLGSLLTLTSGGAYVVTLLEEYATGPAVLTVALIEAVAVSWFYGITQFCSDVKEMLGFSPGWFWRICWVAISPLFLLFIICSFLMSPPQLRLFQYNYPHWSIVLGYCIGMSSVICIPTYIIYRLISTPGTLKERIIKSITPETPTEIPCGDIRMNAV

Compound `C[N+](C)([O-])CCC=C1c2ccccc2CCc2ccccc21` [Amitriptylinoxid, reference compound] returned an IC50 at imipramin-fixation sites of 24 µM.

For `O=c1ccc(-c2ccc(Cn3ccnc3)s2)n[nH]1` [Compound A, 6-[5-(Imidazol-1-yl-methyl)-thien-2-yl]-3(2H)-pyridazinone], the “Blood Pressure diast.” value with narcotized cat (0.1 mg/kg i.v.) is on record as -1%; in the test with narcotized cat (0.316 mg/kg i.v.), -6%; in the test on narcotized cat (1.0 mg/kg i.v.), -18%; in the test with narcotized cat (3.16 mg/kg i.v.) it was -33%. Also, the “Blood Pressure syst.” value is “+1%” with narcotized cat (0.1 mg/kg i.v.), 0% in the test with narcotized cat (0.316 mg/kg i.v.), -8% in the test on narcotized cat (1.0 mg/kg i.v.) and -19% in the test with narcotized cat (3.16 mg/kg i.v.). The “Myocardial Contractility” value is recorded as “+24%” in the test with narcotized cat (0.1 mg/kg i.v.), “+32%” in the test with narcotized cat (0.316 mg/kg i.v.), “+42%” in the test on narcotized cat (1.0 mg/kg i.v.) and “+51%” with narcotized cat (3.16 mg/kg i.v.). Moreover, the “Pulse Frequency” value with narcotized cat (0.1 mg/kg i.v.) is “+1%”; with narcotized cat (0.316 mg/kg i.v.), “+1%”; in the test with narcotized cat (1.0 mg/kg i.v.), -9%; in the test with narcotized cat (3.16 mg/kg i.v.), -15%. Moreover, the activation at 100 µM in test [1] stood at 19%; in test [2], 44%.

For the compound `Nc1cc(-c2ccncc2)c[nH]c1=O` [Compound B, 3-Amino-5-(4-pyridyl)-2-pyridone, reference compound], the “Blood Pressure diast.” value in the test with narcotized cat (0.1 mg/kg i.v.) is -3%; in the test on narcotized cat (0.316 mg/kg i.v.), -4%; in the test on narcotized cat (1.0 mg/kg i.v.), -22%; with narcotized cat (3.16 mg/kg i.v.) it was -51%. The “Blood Pressure syst.” value in the test on narcotized cat (0.1 mg/kg i.v.) is recorded as -3%; with narcotized cat (0.316 mg/kg i.v.) it was -2%; in the test with narcotized cat (1.0 mg/kg i.v.), -15%; with narcotized cat (3.16 mg/kg i.v.), -35%. The “Myocardial Contractility” value in the test on narcotized cat (0.1 mg/kg i.v.) is “+5%”; in the test with narcotized cat (0.316 mg/kg i.v.) it was “+25%”; in the test on narcotized cat (1.0 mg/kg i.v.) it was “+40%”; with narcotized cat (3.16 mg/kg i.v.), “+30%”. The “Pulse Frequency” value in the test on narcotized cat (0.1 mg/kg i.v.) is listed as 0%; in the test with narcotized cat (0.316 mg/kg i.v.), “+1%”; in the test on narcotized cat (1.0 mg/kg i.v.) it was 0%; with narcotized cat (3.16 mg/kg i.v.), -20%. Besides, the figures for the activation at 1000 µM in test [1] (setting [3]) and in test [2] (setting [3]) were 20% and 21%, respectively. For the same compound, the activation at 100 µM is 2% in test [1] and 4% in test [2].

On to `Cl.O=c1ccc(-c2ccc(Cn3cccn3)s2)nn1CCN1CCOCC1` [D, 2-(2-Morpholino-ethyl)-6-[5-(pyrazol-1-yl-methyl)-thien-2-yl]-3(2H)-pyridazinon-hydrochloride], for which the entries for the “3H-Flunitrazepam % Inhibition” value in the test on benzodiazepin-receptors (1 × 10^-4 mole/l) and in the test on benzodiazepin-receptors (1 × 10^-6 mole/l) were 49% and 2%, respectively. The IC50 at benzodiazepin-receptors is 60 µM; on imipramin-fixation sites, 20 µM. Further, the “3H-Imipramin % Inhibition” value on imipramin-fixation sites (1 × 10^-4) was 87%; at imipramin-fixation sites (1 × 10^-6 mole/l), 34%.

For the compound `Cl.O=c1ccc(-c2ccc(Cn3ccnc3)s2)nn1CCN1CCOCC1` [E, 6-[5-(Imidazol-1-yl-methyl)-thien-2-yl]-2-(2-morpholino-ethyl)-3(2H)-pyridazinon-hydrochloride], the “3H-Flunitrazepam % Inhibition” value in the test with benzodiazepin-receptors (1 × 10^-4 mole/l) is 74%; in the test with benzodiazepin-receptors (1 × 10^-6 mole/l) it was 19%. Moreover, the IC50 at benzodiazepin-receptors came to 9 µM. Also, the “3H-Imipramin % Inhibition” value at imipramin-fixation sites (1 × 10^-4) amounted to 40%; on imipramin-fixation sites (1 × 10^-6 mole/l) it was 4%.

As to `Cl.O=c1ccc(-c2ccc(Cn3ccnc3)s2)nn1CCN1CCCCC1` [F, 6-[5-(Imidazol-1-yl-methyl)-thien-2-yl]-2-(2-piperidino-ethyl)-3(2H)-pyridazinon-hydrochloride], the figures for the “3H-Flunitrazepam % Inhibition” value with benzodiazepin-receptors (1 × 10^-4 mole/l) and in the test on benzodiazepin-receptors (1 × 10^-6 mole/l) were 66% and 12%, respectively. Besides, the IC50 on benzodiazepin-receptors worked out at 90 µM; at imipramin-fixation sites, 7 µM. For the same compound, the “3H-Imipramin % Inhibition” value at imipramin-fixation sites (1 × 10^-4) was 62%; on imipramin-fixation sites (1 × 10^-6 mole/l), 7%.

Consider `Cl.O=c1ccc(-c2ccc(Cn3ccnc3)s2)nn1CCCN1CCCCC1` [G, 6-[5-(Imidazol-1-yl-methyl)-thien-2-yl]-2-(3-piperidino-propyl)-3(2H)-pyridazinon-hydrochloride], for which the “3H-Flunitrazepam % Inhibition” value with benzodiazepin-receptors (1 × 10^-4 mole/l) stood at 40%; in the test on benzodiazepin-receptors (1 × 10^-6 mole/l) it was 4%. In addition, the “3H-Imipramin % Inhibition” value on imipramin-fixation sites (1 × 10^-4) worked out at 86%; on imipramin-fixation sites (1 × 10^-6 mole/l), 27%. On imipramin-fixation sites, this compound had an IC50 of 3 µM.

`Cc1cc(-c2ccccc2)nn(CCN2CCOCC2)c1=O.Cl` [H, 4-Methyl-2-(2-morpholino-ethyl)-6-phenyl-3(2H)-pyridazinon-hydrochloride, reference compound]: the “3H-Flunitrazepam % Inhibition” value in the test on benzodiazepin-receptors (1 × 10^-4 mole/l) was found to be 14%; with benzodiazepin-receptors (1 × 10^-6 mole/l) it was 0%. In addition, the “3H-Imipramin % Inhibition” value at imipramin-fixation sites (1 × 10^-4) is reported as 36%; on imipramin-fixation sites (1 × 10^-6 mole/l) it was 8%.

Regarding `CN1CCN=C(c2ccccc2)c2cc(Cl)ccc21` [Medazepam, reference compound], the IC50 on benzodiazepin-receptors was 3.9 µM.

The values are drawn from patent US4667033A, “Substituted 6-(thien-2-yl)-3(2H)-pyridazinones” (A. Nattermann & Cie GmbH, priority 1983, dated 1987).
